This data set deals with HUVEC cells. The data set is described as follows: WST-1 viability under AAPH-induced oxidative stress, HUVEC. In kind it is cell-based, human. As to conditions: AAPH 17.5 mmol/L, relative to pure medium control. In a few lines: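 HUVEC and astrocytes grown to confluence, given antipsychotics at ½ × TPCmax and TPCmax for 1 h, then AAPH (17.5 mmol/L HUVEC; 15.0 mmol/L astrocytes) for 24 h at 37 °C; AA 10 μg/mL as antioxidant control. WST-1 read at 450 nm after 90 min (HUVEC) or 60 min (astrocytes); viability as % of control.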
(Tetrazolium assays rely on reduction of a dye to a coloured formazan, in cell work by metabolically active cells.)

Each structure is given as a SMILES string.

Take `OCCOCCN1CCN(C2=Nc3ccccc3Sc3ccccc32)CC1` [Quetiapine, quetiapine]: the “viability of HUVEC under AAPH” value came to 74.9% (TPC (bromperidol 25 μg/L, quetiapine 400 μg/L)) and 66.8% (½ × TPC (bromperidol 12.5 μg/L, quetiapine 200 μg/L)).

For the origin of these results see publication PMC9102502, “The Influence of Selected Antipsychotic Drugs on Biochemical Aspects of Alzheimer’s Disease” (International Journal of Molecular Sciences, 2022).
